The target of assay [1] is T1, MRP3 (ABCC3) (Homo sapiens, UniProt O15438). In words: inhibition of ATP-dependent [3H]-E217G uptake, membrane vesicles. The settings on record: 10 μM E217G, 5 min, 37 °C, 100 μM compound, value is remaining uptake.
In assay [2] the target is T1, MRP3 (ABCC3). Described as above. The format is biochemical.

Usually IC50 stands for the point on the concentration scale where inhibition reaches its midpoint.

Where two headings read alike, the source gives them in different places.

T1 sequence (O15438 whole entry): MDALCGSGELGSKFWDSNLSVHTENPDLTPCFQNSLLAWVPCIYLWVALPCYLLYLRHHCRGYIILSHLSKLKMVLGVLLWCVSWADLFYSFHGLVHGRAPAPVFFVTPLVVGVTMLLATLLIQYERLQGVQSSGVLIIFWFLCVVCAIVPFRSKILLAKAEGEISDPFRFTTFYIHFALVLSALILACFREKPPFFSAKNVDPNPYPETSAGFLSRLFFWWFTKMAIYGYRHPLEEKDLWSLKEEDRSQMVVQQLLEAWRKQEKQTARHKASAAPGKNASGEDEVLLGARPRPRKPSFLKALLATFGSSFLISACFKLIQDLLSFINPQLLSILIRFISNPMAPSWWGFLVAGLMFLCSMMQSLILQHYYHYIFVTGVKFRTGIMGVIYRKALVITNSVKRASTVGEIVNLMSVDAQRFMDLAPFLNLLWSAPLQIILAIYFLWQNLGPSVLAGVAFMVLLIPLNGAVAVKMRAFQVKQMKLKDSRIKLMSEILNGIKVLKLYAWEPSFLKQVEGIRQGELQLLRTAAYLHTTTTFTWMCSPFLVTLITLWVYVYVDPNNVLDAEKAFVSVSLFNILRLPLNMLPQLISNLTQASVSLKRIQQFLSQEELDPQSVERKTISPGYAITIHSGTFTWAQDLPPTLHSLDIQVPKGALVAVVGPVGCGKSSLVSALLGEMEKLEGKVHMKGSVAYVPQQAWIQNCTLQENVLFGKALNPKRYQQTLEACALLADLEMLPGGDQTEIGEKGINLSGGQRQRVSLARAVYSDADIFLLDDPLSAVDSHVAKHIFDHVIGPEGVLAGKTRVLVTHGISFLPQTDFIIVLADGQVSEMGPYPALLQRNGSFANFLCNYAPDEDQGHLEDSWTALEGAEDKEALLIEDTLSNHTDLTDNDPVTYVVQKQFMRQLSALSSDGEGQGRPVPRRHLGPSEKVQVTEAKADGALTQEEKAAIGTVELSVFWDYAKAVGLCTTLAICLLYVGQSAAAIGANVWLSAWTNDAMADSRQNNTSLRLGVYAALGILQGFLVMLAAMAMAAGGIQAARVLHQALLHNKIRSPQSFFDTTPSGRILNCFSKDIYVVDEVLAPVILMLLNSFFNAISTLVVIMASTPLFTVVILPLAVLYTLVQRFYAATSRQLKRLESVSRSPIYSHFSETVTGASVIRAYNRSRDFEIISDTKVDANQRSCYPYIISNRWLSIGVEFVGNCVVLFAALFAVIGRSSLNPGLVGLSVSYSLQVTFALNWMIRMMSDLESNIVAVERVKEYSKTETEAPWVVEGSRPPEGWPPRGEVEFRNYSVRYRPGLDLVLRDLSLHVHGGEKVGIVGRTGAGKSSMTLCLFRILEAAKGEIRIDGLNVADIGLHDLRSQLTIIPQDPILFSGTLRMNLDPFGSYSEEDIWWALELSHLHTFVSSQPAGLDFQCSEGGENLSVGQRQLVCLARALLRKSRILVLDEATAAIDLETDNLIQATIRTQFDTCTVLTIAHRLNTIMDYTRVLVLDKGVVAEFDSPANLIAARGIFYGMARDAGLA

Consider `NS(=O)(=O)c1cc2c(cc1Cl)NC=NS2(=O)=O` [Chlorothiazide], for which the “E217G uptake, % of control at 100 μM” value at MRP3 (ABCC3) [1] was 37.4%. Same read-out and setting: to `COC(=O)N[C@H](C(=O)N[C@@H](Cc1ccccc1)[C@@H](O)CN(Cc1ccc(-c2ccccn2)cc1)NC(=O)[C@@H](NC(=O)OC)C(C)(C)C)C(C)(C)C` [atazanavir] belongs 55.0%; to `OCCN(CCO)c1nc(N2CCCCC2)c2nc(N(CCO)CCO)nc(N3CCCCC3)c2n1` [dipyridamole], 52.1%. As to `CCCCc1oc2ccc(NS(C)(=O)=O)cc2c1C(=O)c1ccc(OCCCN(CCCC)CCCC)cc1` [dronedarone], it took 47.4 ± 4.41 µM to reach half-maximal inhibition against MRP3 (ABCC3) [2] (IC50). Consider `CCOC(=O)C1=C(C)NC(C)=C(C(=O)OC)C1c1cccc(Cl)c1Cl` (stereo not drawn) [felodipine], for which the “E217G uptake, % of control at 100 μM” value on MRP3 (ABCC3) [1] stood at 45.8%. The compound `CCc1c(Cl)c(O)c(Cl)c(O)c1C(=O)O[C@H]1[C@H](O)[C@H](OC)[C@H](OC/C2=C\C=C\C[C@H](O)/C(C)=C/[C@H](CC)[C@@H](O[C@@H]3OC(C)(C)[C@@H](OC(=O)C(C)C)[C@H](O)[C@@H]3O)/C(C)=C/C(C)=C/C[C@@H]([C@@H](C)O)OC2=O)O[C@@H]1C` [fidaxomicin] registered a concentration for half-maximal inhibition (IC50) at MRP3 (ABCC3) [2] (10 μM E217G, ATP, 5 min, 37 °C, 0.1-100 μM inhibitor) of 1.83 ± 0.46 µM. In the case of `CC[C@H](C)C(=O)O[C@H]1C[C@@H](C)C=C2C=C[C@H](C)[C@H](CC[C@@H]3C[C@@H](O)CC(=O)O3)[C@H]21` [lovastatin], the “E217G uptake, % of control at 100 μM” value on MRP3 (ABCC3) [1] amounted to 63.5%. The same measure, in the same setting: as for `CNC(=O)c1cc(Oc2ccc(NC(=O)Nc3ccc(Cl)c(C(F)(F)F)c3)c(F)c2)ccn1` [regorafenib], the figure is 69.5%.

With `Cc1ccc(C(=O)Nc2ccc(S(=O)(=O)O)c3cc(S(=O)(=O)O)cc(S(=O)(=O)O)c23)cc1NC(=O)c1cccc(NC(=O)Nc2cccc(C(=O)Nc3cc(C(=O)Nc4ccc(S(=O)(=O)O)c5cc(S(=O)(=O)O)cc(S(=O)(=O)O)c45)ccc3C)c2)c1` [suramin], inhibition against MRP3 (ABCC3) [2] was half-maximal at 3.33 ± 0.41 µM (IC50).

The values are drawn from paper PMC5450158 (European journal of pharmaceutical sciences : official …, 2017).
